Results on five compounds are retold here after paper PMC12551991, “Inheritance and enzymatic basis of anthocyanin malonylation in Fragaria × ananassa” (The Plant Journal, 2025).

Common to all, as to assay: LC-MS malonyltransferase assay, non-linear Michaelis-Menten fit
Common to all, as to assay type: biochemical, Fragaria × ananassa
Holding throughout (details): potassium phosphate pH 7.0, 30°C, 30 min

One experiment deals with T1, MAT1C (FaMAT1C).
T1 construct: gene MAT1; no tag removal described
From the text:
LC-MS malonyltransferase assay, non-linear Michaelis-Menten fit on MAT1C (FaMAT1C)

The next experiment concerns T2, MAT4C1/S1 (FaMAT4C1).
T2 construct: gene MAT4; no tag removal described
The text has this:
LC-MS malonyltransferase assay, non-linear Michaelis-Menten fit on MAT4C1/S1 (FaMAT4C1)

The subject of a further experiment is T3, MAT1S (FaMAT1S).
T3 construct: gene MAT1; no tag removal described
The text has this:
LC-MS malonyltransferase assay, non-linear Michaelis-Menten fit on MAT1S (FaMAT1S)

The next experiment concerns T4, MAT2C2/S2 (MAT2S2).
T4 construct: gene MAT2; no tag removal described
The text has this:
LC-MS malonyltransferase assay, non-linear Michaelis-Menten fit on MAT2C2/S2 (MAT2S2)

In a further experiment the test system is T5, MAT2C1/S1 (MAT2S1).
T5 construct: gene MAT2; no tag removal described
The text has this:
LC-MS malonyltransferase assay, non-linear Michaelis-Menten fit on MAT2C1/S1 (MAT2S1)

Where [1] appears, read: acceptor, co-substrate malonyl-CoA.
Setting [2] is: donor, co-substrate quercetin-3-glucoside.

The term Km denotes the concentration of substrate that gives half-maximal velocity. Consider `OC[C@H]1O[C@@H](Oc2cc3c(O)cc(O)cc3[o+]c2-c2ccc(O)cc2)[C@H](O)[C@@H](O)[C@@H]1O` [Pelargonidin‐3‐glucoside], for which the values for the Michaelis-Menten constant (Km) in the experiment with MAT1C (FaMAT1C) (setting [1]), in the experiment on MAT4C1/S1 (FaMAT4C1) (setting [1]) and in the experiment with MAT1S (FaMAT1S) (setting [1]) were 270 ± 100 µM, 390 ± 200 µM and 400 ± 200 µM, respectively.
For the compound `CC(C)(COP(=O)(O)OP(=O)(O)OC[C@H]1O[C@@H](n2cnc3c(N)ncnc32)[C@H](O)[C@@H]1OP(=O)(O)O)[C@@H](O)C(=O)NCCC(=O)NCCSC(=O)CC(=O)O` [Malonyl‐CoA], the Km in the experiment on MAT2C2/S2 (MAT2S2) (setting [2]) is 24 ± 20 µM; with MAT1C (FaMAT1C) (setting [2]), 700 ± 200 µM; in the experiment on MAT2C1/S1 (MAT2S1) (setting [2]), 22 ± 10 µM; in the experiment with MAT4C1/S1 (FaMAT4C1) (setting [2]) it was 410 ± 200 µM; in the experiment with MAT1S (FaMAT1S) (setting [2]) it was 450 ± 200 µM.
Consider `O=c1c(O[C@@H]2O[C@H](CO)[C@@H](O)[C@H](O)[C@H]2O)c(-c2ccc(O)c(O)c2)oc2cc(O)cc(O)c12` [Quercetin‐3‐glucoside], for which the Km is 180 ± 60 µM in the experiment with MAT2C2/S2 (MAT2S2) (setting [1]); 310 ± 100 µM in the experiment on MAT1C (FaMAT1C) (setting [1]); 180 ± 50 µM in the experiment on MAT2C1/S1 (MAT2S1) (setting [1]); 220 ± 100 µM in the experiment with MAT4C1/S1 (FaMAT4C1) (setting [1]); 300 ± 100 µM in the experiment with MAT1S (FaMAT1S) (setting [1]).
As for `O=c1c(O[C@@H]2O[C@H](CO)[C@@H](O)[C@H](O)[C@H]2O)c(-c2ccc(O)cc2)oc2cc(O)cc(O)c12` [Kaempferol‐3‐glucoside], the Michaelis constant (Km) in the experiment on MAT1C (FaMAT1C) (setting [1]) stood at 150 ± 40 µM; in the experiment with MAT2C1/S1 (MAT2S1) (setting [1]), 790 ± 300 µM; in the experiment on MAT4C1/S1 (FaMAT4C1) (setting [1]), 250 ± 80 µM; in the experiment on MAT1S (FaMAT1S) (setting [1]), 300 ± 60 µM.
As to `OC[C@H]1O[C@@H](Oc2cc3c(O)cc(O)cc3[o+]c2-c2ccc(O)c(O)c2)[C@H](O)[C@@H](O)[C@@H]1O` [Cyanidin‐3‐glucoside], the Km in the experiment with MAT1C (FaMAT1C) (setting [1]) came to 17 ± 3 µM; with MAT4C1/S1 (FaMAT4C1) (setting [1]), 63 ± 30 µM; with MAT1S (FaMAT1S) (setting [1]) it was 11 ± 3 µM.
